Values of other authors as cited in patent publication US20180110725A1, “COMPOSITIONS, METHODS AND KITS FOR THE SAFE INHALED DELIVERY OF TARGETED OPIOIDS FOR THE TREATMENT OF PAIN AND ADDICTION” (Somniferum Labs LLC, priority 2016, published 2018).

Legend:
[1] = in vivo
μ-1 opioid receptor = μ-1 opioid receptor (Homo sapiens, UniProt P35372); conditions: Wittwer and Kern, 2006
[2] = room temperature

Chain of μ-1 opioid receptor (P35372 whole entry): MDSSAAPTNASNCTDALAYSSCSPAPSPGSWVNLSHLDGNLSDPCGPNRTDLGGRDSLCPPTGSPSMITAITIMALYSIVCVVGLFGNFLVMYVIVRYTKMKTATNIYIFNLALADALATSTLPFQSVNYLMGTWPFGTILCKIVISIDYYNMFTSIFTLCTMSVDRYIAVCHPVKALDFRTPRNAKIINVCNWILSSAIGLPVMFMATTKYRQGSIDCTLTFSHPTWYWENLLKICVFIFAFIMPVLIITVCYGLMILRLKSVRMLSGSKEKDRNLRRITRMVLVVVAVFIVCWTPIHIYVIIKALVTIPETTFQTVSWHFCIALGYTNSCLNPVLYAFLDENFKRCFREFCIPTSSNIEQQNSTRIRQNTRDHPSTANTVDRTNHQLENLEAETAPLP

## morphine-6-glucuronide sulfate
[1]
  duration of activity: relatively long duration of activity

## CN1CC[C@]23c4c5ccc(O)c4O[C@H]2[C@@H](O[C@@H]2O[C@H](C(=O)O)[C@@H](O)[C@H](O)[C@H]2O)C=C[C@H]3[C@H]1C5 [Morphine-6-glucuronide]
μ-1 opioid receptor
  potency relative to morphine: higher potency than morphine

## Br.CN1CC[C@]23c4c5ccc(O)c4O[C@H]2[C@@H](O[C@@H]2O[C@H](C(=O)O)[C@@H](O)[C@H](O)[C@H]2O)C=C[C@H]3[C@H]1C5 [Morphine-6 glucuronide bromide]
[2]
  storage time with little or no degradation: up to 6 years

## CC(=O)O.CN1CCC23c4c5ccc(O)c4OC2C(OC2OC(C(=O)O)C(O)C(O)C2O)C=CC3C1C5 (stereo not shown) [morphine-6-glucuronide acetate]
[1]
  duration of activity: relatively long duration of activity
